Laboratory results: publication PMC2813745, “A novel inhibitor of the PI3K/Akt pathway based on the structure of inositol 1,3,4,5,6-pentakisphosphate” (British Journal of Cancer, 2010)

Key:
CDK7/cyclin H/MNAT1 = CDK7/cyclin H/MNAT1 (Homo sapiens, UniProt P50613); test: SelectScreen kinase profiling: CDK7/cyclin H/MNAT1; assay type: biochemical; conditions: [ATP] 150 µM
Description: (§1) Effect of the indicated compounds on the activity of various kinases was assessed by SelectScreen Kinase Profiling Service (Invitrogen-Life Technologies, Paisley, UK). Assays were performed using 1 μM of the tested compounds and ATP concentration as indicated in the corresponding tables. In the case of […] a screen using 10 μM of the compound was also carried out, as indicated in the corresponding table.

MAP2K1 (MEK1) = MAP2K1 (MEK1) (Homo sapiens, UniProt Q02750); test: SelectScreen kinase profiling: MAP2K1; assay type: biochemical; conditions: [ATP] 100 µM
Description: as §1

[1] = target: PIK3CD/PIK3R1(p110δ/p85α) (Homo sapiens, UniProt O00329); test: SelectScreen kinase profiling: PIK3CD/PIK3R1; assay type: biochemical; conditions: [ATP] 25 µM
Chain of PIK3CD/PIK3R1(p110δ/p85α) (O00329 whole entry): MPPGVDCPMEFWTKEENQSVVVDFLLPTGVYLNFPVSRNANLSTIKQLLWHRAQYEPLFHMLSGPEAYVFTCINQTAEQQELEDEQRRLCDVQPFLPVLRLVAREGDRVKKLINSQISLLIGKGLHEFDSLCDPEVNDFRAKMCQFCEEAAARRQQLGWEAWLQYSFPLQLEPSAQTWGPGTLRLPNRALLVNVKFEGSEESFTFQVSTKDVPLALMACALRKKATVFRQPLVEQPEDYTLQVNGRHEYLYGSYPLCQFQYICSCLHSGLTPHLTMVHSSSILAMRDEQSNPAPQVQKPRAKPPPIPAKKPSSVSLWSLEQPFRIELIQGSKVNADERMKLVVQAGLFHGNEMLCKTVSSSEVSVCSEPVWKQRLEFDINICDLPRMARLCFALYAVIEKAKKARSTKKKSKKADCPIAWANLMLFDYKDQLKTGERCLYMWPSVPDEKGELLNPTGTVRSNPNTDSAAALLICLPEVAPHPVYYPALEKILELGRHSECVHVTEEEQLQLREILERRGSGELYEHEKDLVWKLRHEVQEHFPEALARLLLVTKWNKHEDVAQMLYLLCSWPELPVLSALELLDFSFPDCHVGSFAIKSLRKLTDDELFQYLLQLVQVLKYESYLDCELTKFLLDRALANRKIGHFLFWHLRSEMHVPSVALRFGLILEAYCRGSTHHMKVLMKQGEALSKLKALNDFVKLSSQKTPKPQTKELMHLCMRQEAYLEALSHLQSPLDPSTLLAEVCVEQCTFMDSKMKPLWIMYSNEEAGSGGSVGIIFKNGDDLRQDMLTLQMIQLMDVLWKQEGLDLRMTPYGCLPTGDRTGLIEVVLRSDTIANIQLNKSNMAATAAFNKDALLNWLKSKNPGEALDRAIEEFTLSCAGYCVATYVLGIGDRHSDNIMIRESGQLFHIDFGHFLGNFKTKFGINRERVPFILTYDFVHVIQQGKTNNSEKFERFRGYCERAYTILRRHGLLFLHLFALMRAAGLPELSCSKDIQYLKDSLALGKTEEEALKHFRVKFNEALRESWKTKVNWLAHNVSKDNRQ
Chain of PIK3CD/PIK3R1(p110δ/p85α) (P27986 whole entry partner): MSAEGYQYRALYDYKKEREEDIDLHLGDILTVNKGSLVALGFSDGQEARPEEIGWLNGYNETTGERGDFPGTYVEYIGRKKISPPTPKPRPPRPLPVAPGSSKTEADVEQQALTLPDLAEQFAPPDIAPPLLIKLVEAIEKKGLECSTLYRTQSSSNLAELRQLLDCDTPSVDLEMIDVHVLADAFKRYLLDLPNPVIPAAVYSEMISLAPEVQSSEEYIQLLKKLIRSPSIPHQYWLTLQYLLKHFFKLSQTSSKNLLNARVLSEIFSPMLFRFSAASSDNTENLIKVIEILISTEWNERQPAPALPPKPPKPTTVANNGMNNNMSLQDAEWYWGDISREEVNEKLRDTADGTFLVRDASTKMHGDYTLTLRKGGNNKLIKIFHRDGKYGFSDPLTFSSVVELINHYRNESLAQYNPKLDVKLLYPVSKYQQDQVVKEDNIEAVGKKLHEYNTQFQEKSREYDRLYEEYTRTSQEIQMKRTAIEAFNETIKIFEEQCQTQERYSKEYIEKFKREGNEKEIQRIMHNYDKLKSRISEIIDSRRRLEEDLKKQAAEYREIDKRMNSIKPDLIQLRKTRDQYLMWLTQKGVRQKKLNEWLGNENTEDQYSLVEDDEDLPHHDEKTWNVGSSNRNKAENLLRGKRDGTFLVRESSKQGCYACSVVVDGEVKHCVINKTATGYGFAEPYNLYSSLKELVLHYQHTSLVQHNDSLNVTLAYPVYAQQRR
Description: as §1

PRKCA (PKCα) = PRKCA (PKCα) (Homo sapiens, UniProt P17252); test: SelectScreen kinase profiling: PRKCA; assay type: biochemical; conditions: [ATP] 25 µM
Description: as §1

MAPK14 (p38α) = MAPK14 (p38α) (Homo sapiens, UniProt Q16539); test: SelectScreen kinase profiling: MAPK14; assay type: biochemical; conditions: 1 µM compound; [ATP] 100 µM
Chain of MAPK14 (p38α) (Q16539 whole entry): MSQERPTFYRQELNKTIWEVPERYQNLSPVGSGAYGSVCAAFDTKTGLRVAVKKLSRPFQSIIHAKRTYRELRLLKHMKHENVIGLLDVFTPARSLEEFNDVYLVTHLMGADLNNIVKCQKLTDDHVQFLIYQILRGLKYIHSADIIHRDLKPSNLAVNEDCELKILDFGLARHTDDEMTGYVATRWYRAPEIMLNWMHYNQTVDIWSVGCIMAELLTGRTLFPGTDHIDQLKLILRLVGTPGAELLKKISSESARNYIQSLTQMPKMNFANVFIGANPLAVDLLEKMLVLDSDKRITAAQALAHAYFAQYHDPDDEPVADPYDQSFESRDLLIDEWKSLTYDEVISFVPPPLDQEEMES
Description: as §1

CHEK2 (CHK2) = CHEK2 (CHK2) (Homo sapiens, UniProt O96017); test: SelectScreen kinase profiling: CHEK2; assay type: biochemical; conditions: [ATP] 75 µM
Description: as §1

[2] = target: PIK3CA/PIK3R1(p110α/p85α) (Homo sapiens, UniProt P42336); test: SelectScreen kinase profiling: PIK3CA/PIK3R1; assay type: biochemical; conditions: [ATP] 25 µM
Chain of PIK3CA/PIK3R1(p110α/p85α) (P42336 whole entry): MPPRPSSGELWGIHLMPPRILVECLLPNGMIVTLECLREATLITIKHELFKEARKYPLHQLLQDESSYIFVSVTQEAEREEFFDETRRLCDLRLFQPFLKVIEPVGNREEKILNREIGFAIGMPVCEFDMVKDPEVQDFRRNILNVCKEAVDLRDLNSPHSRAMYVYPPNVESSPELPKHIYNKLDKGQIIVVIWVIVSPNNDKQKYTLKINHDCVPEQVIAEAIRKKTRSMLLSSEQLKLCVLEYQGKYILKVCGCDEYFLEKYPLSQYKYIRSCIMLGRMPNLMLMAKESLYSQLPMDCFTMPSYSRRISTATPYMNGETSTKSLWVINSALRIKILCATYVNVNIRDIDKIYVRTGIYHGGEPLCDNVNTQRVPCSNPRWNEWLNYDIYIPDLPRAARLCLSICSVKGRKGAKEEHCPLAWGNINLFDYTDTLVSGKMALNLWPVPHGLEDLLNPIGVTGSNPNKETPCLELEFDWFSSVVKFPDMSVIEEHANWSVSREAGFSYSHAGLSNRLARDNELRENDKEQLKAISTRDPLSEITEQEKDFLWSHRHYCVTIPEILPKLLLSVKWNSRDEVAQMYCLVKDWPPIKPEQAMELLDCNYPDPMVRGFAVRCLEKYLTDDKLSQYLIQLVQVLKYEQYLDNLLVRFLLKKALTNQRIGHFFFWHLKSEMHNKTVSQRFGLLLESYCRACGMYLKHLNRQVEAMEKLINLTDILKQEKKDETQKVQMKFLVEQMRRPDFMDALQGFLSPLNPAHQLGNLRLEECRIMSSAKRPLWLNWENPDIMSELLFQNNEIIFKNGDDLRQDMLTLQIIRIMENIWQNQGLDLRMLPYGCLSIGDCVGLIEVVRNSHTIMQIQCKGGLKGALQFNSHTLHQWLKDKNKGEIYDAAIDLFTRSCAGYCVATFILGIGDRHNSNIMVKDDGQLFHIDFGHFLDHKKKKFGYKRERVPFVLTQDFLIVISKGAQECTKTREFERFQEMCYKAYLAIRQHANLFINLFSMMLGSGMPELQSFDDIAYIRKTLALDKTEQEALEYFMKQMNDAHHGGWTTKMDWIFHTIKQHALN
Chain of PIK3CA/PIK3R1(p110α/p85α) (P27986 whole entry partner): as the sequence (P27986 whole entry partner) above
Description: as §1

CSNK1A1 (CK1α1) = CSNK1A1 (CK1α1) (Homo sapiens, UniProt P48729); test: SelectScreen kinase profiling: CSNK1A1; assay type: biochemical; conditions: [ATP] 5 µM
Chain of CSNK1A1 (CK1α1) (P48729 whole entry): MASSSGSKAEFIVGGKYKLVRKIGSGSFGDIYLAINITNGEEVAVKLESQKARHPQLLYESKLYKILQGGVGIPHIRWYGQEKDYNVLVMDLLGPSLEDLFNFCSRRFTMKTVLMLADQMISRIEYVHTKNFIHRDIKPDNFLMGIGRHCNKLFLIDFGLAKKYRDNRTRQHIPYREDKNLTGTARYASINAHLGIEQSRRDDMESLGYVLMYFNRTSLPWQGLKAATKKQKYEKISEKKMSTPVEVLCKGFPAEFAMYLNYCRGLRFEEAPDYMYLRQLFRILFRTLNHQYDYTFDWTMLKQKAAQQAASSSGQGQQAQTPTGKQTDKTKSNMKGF
Description: as §1

PRKACA (PKA) = PRKACA (PKA) (Homo sapiens, UniProt P17612); test: SelectScreen kinase profiling: PRKACA; assay type: biochemical; conditions: [ATP] 5 µM
Description: as §1

RPS6KA1 (RSK1) = RPS6KA1 (RSK1) (Homo sapiens, UniProt Q15418); test: SelectScreen kinase profiling: RPS6KA1; assay type: biochemical; conditions: [ATP] 5 µM
Description: as §1

CDK1/cyclin B = CDK1/cyclin B (Homo sapiens, UniProt P06493); test: SelectScreen kinase profiling: CDK1/cyclin B; assay type: biochemical; conditions: [ATP] 25 µM
Description: as §1

CDC42 BPA (MRCKA) = CDC42 BPA (MRCKA) (Homo sapiens, UniProt Q5VT25); test: SelectScreen kinase profiling: CDC42 BPA; assay type: biochemical; conditions: [ATP] 5 µM
Description: as §1

PI4KB (PI4Kβ) = PI4KB (PI4Kβ) (Homo sapiens, UniProt Q9UBF8); test: SelectScreen kinase profiling: PI4KB; assay type: biochemical; conditions: [ATP] 5 µM
Chain of PI4KB (PI4Kβ) (Q9UBF8 whole entry): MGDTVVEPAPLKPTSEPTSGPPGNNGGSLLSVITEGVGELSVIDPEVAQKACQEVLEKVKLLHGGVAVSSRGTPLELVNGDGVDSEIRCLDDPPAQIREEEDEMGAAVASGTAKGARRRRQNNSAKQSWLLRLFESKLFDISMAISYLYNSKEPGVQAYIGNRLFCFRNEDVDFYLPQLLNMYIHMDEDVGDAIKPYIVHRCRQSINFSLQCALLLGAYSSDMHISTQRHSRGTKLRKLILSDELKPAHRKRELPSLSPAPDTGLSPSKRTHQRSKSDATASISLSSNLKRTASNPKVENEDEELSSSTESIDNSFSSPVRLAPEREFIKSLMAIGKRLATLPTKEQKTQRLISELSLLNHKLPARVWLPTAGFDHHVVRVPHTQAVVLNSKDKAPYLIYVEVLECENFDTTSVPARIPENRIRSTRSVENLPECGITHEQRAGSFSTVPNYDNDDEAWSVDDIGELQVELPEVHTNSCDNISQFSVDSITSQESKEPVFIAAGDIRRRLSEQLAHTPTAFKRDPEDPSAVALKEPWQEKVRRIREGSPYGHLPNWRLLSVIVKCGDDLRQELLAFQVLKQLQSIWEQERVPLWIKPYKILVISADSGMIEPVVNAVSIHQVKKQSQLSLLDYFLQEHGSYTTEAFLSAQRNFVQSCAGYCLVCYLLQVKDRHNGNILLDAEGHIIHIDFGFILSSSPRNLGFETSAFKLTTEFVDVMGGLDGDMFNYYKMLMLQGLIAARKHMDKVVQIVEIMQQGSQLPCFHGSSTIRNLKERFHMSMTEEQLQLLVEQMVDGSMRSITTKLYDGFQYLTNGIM
Description: as §1

PIK3CG (p110γ) = PIK3CG (p110γ) (Homo sapiens, UniProt P48736); test: SelectScreen kinase profiling: PIK3CG; assay type: biochemical; conditions: [ATP] 25 µM
Description: as §1

JAK1 = JAK1 (Homo sapiens, UniProt P23458); test: SelectScreen kinase profiling: JAK1; assay type: biochemical; conditions: [ATP] 75 µM
Description: as §1

PRKCD (PKCδ) = PRKCD (PKCδ) (Homo sapiens, UniProt Q05655); test: SelectScreen kinase profiling: PRKCD; assay type: biochemical; conditions: [ATP] 25 µM
Description: as §1

IRAK4 = IRAK4 (Homo sapiens, UniProt Q9NWZ3); test: SelectScreen kinase profiling: IRAK4; assay type: biochemical; conditions: [ATP] 25 µM
Description: as §1

MAPK1 (ERK2) = MAPK1 (ERK2) (Homo sapiens, UniProt P28482); test: SelectScreen kinase profiling: MAPK1; assay type: biochemical; conditions: [ATP] 100 µM
Description: as §1

PC3 = test: SRB assay, PC3; assay type: cell-based, human; conditions: PC3, 72 h
Description: Cells seeded in a 24-well plate were treated with the indicated compounds in serum free DMEM or DMEM containing 0.5% FBS (PC3). After 72 h, the number of surviving cells was assessed by manual cell counting or by using the cell counter CDA-500 (Sysmex, Milton Keynes, UK). Alternatively, after 48 h, the number of apoptotic cells was assessed by acridine orange/ethidium bromide assay as described ([Piccolo et al, 2004]; [Maffucci et al, 2005]). SRB test was carried out in SKOV-3 and PC3 seeded in 96-well plate (3800 cells per well or 5800 cells per well, respectively) after 72 h of treatment as described ([Cappella et al, 2001]).
The number of surviving cells was assessed by cell counting. Data are mean±s.e. of n=3 (A), n=6 (B), n=3 (C) and n=4 (D) independent experiments carried out in duplicate. ^*=P<0.01; ^**=P<0.05. […] After 72 h the number of surviving cells was assessed by SRB assay. Data are mean±s.e. of n=2 independent experiments.
Data are mean±s.e. of n=4 independent experiments carried out in duplicate. […] Data are mean±s.e. of n=5 independent experiments carried out in duplicate. […] Data are mean±s.e. of n=6 independent experiments carried out in duplicate. […] Data are mean±s.e. of n=2 independent experiments carried out in duplicate. In all cases (A–D), cells were treated for 72 h and the number of surviving cells was assessed by cell counting. […] In all cases (E, F), cells were treated for 72 h and the number of surviving cells was assessed by SRB assay and data are mean±s.e. of two experiments carried out in quadruplicate.

MAPK9 (JNK2) = MAPK9 (JNK2) (Homo sapiens, UniProt P45984); test: SelectScreen kinase profiling: MAPK9; assay type: biochemical; conditions: [ATP] 100 µM
Description: as §1

LCK = LCK (Homo sapiens, UniProt P06239); test: SelectScreen kinase profiling: LCK; assay type: biochemical; conditions: [ATP] 50 µM
Description: as §1

ROCK2 = ROCK2 (Homo sapiens, UniProt O75116); test: SelectScreen kinase profiling: ROCK2; assay type: biochemical; conditions: [ATP] 50 µM
Description: as §1

CSNK1G1 (CK1γ1) = CSNK1G1 (CK1γ1) (Homo sapiens, UniProt Q9HCP0); test: SelectScreen kinase profiling: CSNK1G1; assay type: biochemical; conditions: [ATP] 5 µM
Description: as §1

CDK5/p35 = CDK5/p35 (Homo sapiens, UniProt Q00535); test: SelectScreen kinase profiling: CDK5/p35; assay type: biochemical; conditions: [ATP] 10 µM
Description: as §1

CAMK2A (CaMKII alpha) = CAMK2A (CaMKII alpha) (Homo sapiens, UniProt Q9UQM7); test: SelectScreen kinase profiling: CAMK2A; assay type: biochemical; conditions: [ATP] 10 µM
Description: as §1

PRKCB1 (PKCβI) = PRKCB1 (PKCβI) (Homo sapiens, UniProt P05771); test: SelectScreen kinase profiling: PRKCB1; assay type: biochemical; conditions: [ATP] 200 µM
Chain of PRKCB1 (PKCβI) (P05771 whole entry): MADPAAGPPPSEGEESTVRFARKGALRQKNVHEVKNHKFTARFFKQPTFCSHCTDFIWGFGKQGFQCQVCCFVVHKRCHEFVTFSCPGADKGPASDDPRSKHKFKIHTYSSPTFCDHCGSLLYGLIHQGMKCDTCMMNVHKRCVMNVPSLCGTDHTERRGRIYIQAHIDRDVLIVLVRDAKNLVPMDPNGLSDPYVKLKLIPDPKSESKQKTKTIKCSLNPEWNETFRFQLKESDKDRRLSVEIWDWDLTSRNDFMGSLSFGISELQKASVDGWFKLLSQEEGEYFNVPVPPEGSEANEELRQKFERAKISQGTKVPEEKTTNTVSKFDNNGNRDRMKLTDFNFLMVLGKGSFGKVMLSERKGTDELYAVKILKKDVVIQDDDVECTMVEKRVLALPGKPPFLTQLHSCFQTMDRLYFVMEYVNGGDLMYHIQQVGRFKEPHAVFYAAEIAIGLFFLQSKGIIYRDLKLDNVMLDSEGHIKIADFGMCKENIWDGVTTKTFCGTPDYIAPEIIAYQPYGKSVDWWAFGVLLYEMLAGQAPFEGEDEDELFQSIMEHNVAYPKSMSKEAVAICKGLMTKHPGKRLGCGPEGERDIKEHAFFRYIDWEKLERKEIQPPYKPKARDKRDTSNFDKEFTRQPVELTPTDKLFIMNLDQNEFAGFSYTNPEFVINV
Description: as §1

MAPK3 (ERK1) = MAPK3 (ERK1) (Homo sapiens, UniProt P27361); test: SelectScreen kinase profiling: MAPK3; assay type: biochemical; conditions: [ATP] 50 µM
Description: as §1

SRC = SRC (Homo sapiens, UniProt P12931); test: SelectScreen kinase profiling: SRC; assay type: biochemical; conditions: [ATP] 50 µM
Description: as §1

O=P(O)(O)OC1C(OCc2ccccc2)C(OP(=O)(O)O)C(OP(=O)(O)O)C(OP(=O)(O)O)C1OP(=O)(O)O (stereo not drawn) [2-O-Bn-InsP5, 2-O-benzyl-myo-inositol 1,3,4,5,6-pentakisphosphate]
inhibition at 1 µM (CDK7/cyclin H/MNAT1; 1 µM compound): -2% | inhibition at 1 µM (MAP2K1 (MEK1); 1 µM compound): 14% | inhibition at 1 µM ([1]; 1 µM compound): 6% | inhibition at 1 µM (PRKCA (PKCα); 1 µM compound): 21% | inhibition at 1 µM (MAPK14 (p38α)): 30% | inhibition at 1 µM (CHEK2 (CHK2); 1 µM compound): 12% | inhibition at 1 µM ([2]; 1 µM compound): 2% | inhibition at 1 µM (CSNK1A1 (CK1α1); 1 µM compound): 0% | inhibition at 1 µM (PRKACA (PKA); 1 µM compound): 4% | inhibition at 1 µM (RPS6KA1 (RSK1); 1 µM compound): 2% | inhibition at 1 µM (CDK1/cyclin B; 1 µM compound): 9% | inhibition at 1 µM (CDC42 BPA (MRCKA); 1 µM compound): 17% | inhibition at 1 µM (PI4KB (PI4Kβ); 1 µM compound): 0% | inhibition at 1 µM (PIK3CG (p110γ); 1 µM compound): -41% | inhibition at 1 µM (JAK1; 1 µM compound): -1% | inhibition at 1 µM (PRKCD (PKCδ); 1 µM compound): 9% | inhibition at 1 µM (IRAK4; 1 µM compound): -35% | inhibition at 1 µM (MAPK1 (ERK2); 1 µM compound): 6% | number of surviving cells (PC3): Higher activity | inhibition at 1 µM (MAPK9 (JNK2); 1 µM compound): -1% | inhibition at 1 µM (LCK; 1 µM compound): 7% | inhibition at 1 µM (ROCK2; 1 µM compound): 13% | inhibition at 1 µM (CSNK1G1 (CK1γ1); 1 µM compound): 7% | inhibition at 1 µM (CDK5/p35; 1 µM compound): 2% | inhibition at 1 µM (CAMK2A (CaMKII alpha); 1 µM compound): -2% | inhibition at 1 µM (PRKCB1 (PKCβI); 1 µM compound): 11% | inhibition at 1 µM (MAPK3 (ERK1); 1 µM compound): 19% | inhibition at 1 µM (SRC; 1 µM compound): 4%

O=P(O)(O)OC1C(O)C(OP(=O)(O)O)C(OP(=O)(O)O)C(OP(=O)(O)O)C1OP(=O)(O)O (stereo not drawn) [InsP5, inositol 1,3,4,5,6-pentakisphosphate]
inhibition at 10 µM (CDK7/cyclin H/MNAT1; 10 µM compound): 0% | inhibition at 10 µM (MAP2K1 (MEK1); 10 µM compound): 7% | inhibition at 10 µM ([1]; 10 µM compound): -2% | inhibition at 10 µM (PRKCA (PKCα); 10 µM compound): 30% | inhibition at 1 µM (MAPK14 (p38α)): 23% | inhibition at 10 µM (CHEK2 (CHK2); 10 µM compound): 15% | inhibition at 10 µM ([2]; 10 µM compound): 5% | inhibition at 10 µM (CSNK1A1 (CK1α1); 10 µM compound): 13% | inhibition at 10 µM (PRKACA (PKA); 10 µM compound): 5% | inhibition at 10 µM (RPS6KA1 (RSK1); 10 µM compound): 12% | inhibition at 10 µM (CDK1/cyclin B; 10 µM compound): 16% | inhibition at 10 µM (CDC42 BPA (MRCKA); 10 µM compound): 0% | inhibition at 10 µM (PI4KB (PI4Kβ); 10 µM compound): 3% | inhibition at 10 µM (PIK3CG (p110γ); 10 µM compound): 4% | inhibition at 10 µM (JAK1; 10 µM compound): -2% | inhibition at 10 µM (PRKCD (PKCδ); 10 µM compound): 19% | inhibition at 10 µM (IRAK4; 10 µM compound): -5% | inhibition at 10 µM (MAPK1 (ERK2); 10 µM compound): 8% | concentrations able to mimic the effect of 2-O-Bn-InsP5 (PC3): 200 to 300 µM | number of surviving cells (PC3): no effect in PC3 at concentrations up to 50 μM | inhibition at 10 µM (MAPK9 (JNK2); 10 µM compound): 23% | inhibition at 10 µM (LCK; 10 µM compound): -26% | inhibition at 10 µM (ROCK2; 10 µM compound): 15% | inhibition at 10 µM (CSNK1G1 (CK1γ1); 10 µM compound): 13% | inhibition at 10 µM (CDK5/p35; 10 µM compound): 5% | inhibition at 10 µM (CAMK2A (CaMKII alpha); 10 µM compound): 17% | inhibition at 10 µM (PRKCB1 (PKCβI); 10 µM compound): 17% | inhibition at 10 µM (MAPK3 (ERK1); 10 µM compound): 3% | inhibition at 10 µM (SRC; 10 µM compound): 10%
